Measurements as given in patent US11897796B2, “Compositions of heterocyclic compounds and uses as sulfidogenesis inhibitors” (ChampionX USA Inc., priority 2020, dated 2024).
Like-named read-outs stand apart in the source and are kept apart here.

Legend:
[1] = system: sulfur-utilizing prokaryotes; settings: after 8 weeks; for Average reduction in biogenic sulfide: compared to untreated; for Average Sulfide: field water, 37° C.
Method: Sample Preparation and Test Conditions. Field water samples were collected and shipped under anoxic conditions. Prior to setting up the bottle test, the water was sparged with carbon dioxide in a nitrogen environment overnight to remove the existing hydrogen sulfide. The water sample was then supplemented with 50 mg/L acetate, 5 mg/L propionate, and 5 mg/L butyrate and trace elements and vitamins. Fluids (100 mL) were aliquoted into 125 mL glass serum bottles containing a carbon steel 1018 ball bearing. Triplicate experiments were performed. Three bottles were left untreated and three bottles were treated each with 50 ppm and 80 ppm of the desired chemistry. Samples were incubated at 37° C. for 8 weeks.
(§1) A sulfide test kit (Code 4456-01, available from LaMotte) was used to test the efficacy of 3,3′-methylenebis[5-methyloxazolidine]

[2] = system: sulfur-utilizing prokaryotes; settings: after 6 weeks; for Average Sulfide: Source 2 field water, 37° C.
Method: Sample Preparation and Test Conditions. Field water samples were treated with additional organic acids (e.g., Source 2) and were collected and shipped under anoxic conditions. Prior to setting up the bottle test, the water was sparged with carbon dioxide in a nitrogen environment overnight to remove the existing hydrogen sulfide. The water sample was then supplemented with 1 mM acetate, trace elements, and vitamins. Fluids (100 mL) were aliquoted into 125 mL glass serum bottles containing a carbon steel 1018 ball bearing. Triplicate experiments were performed. Three bottles were left untreated and three bottles were treated each at a concentration of 80 ppm, 120 ppm, and 150 ppm of the desired chemistry based on the total weight of the sample. Samples were incubated at 37° C. for 6 weeks.
as §1

[3] = system: sulfate reducing microorganisms
Method: Sample preparation and test conditions. The sulfidogenesis inhibitor MBO was tested using a pressurized bioreactor system. Two sand packed bioreactors were used to establish a sour population of sulfate reducing microorganisms with a seawater mixture for one month. The pressurized bioreactors maintained a flow rate of 0.05 mL/minute and were held at a temperature of 30° C. and a pressure of 1000 psig. Once both bioreactors contained sufficient sulfide in the effluent, one bioreactor remained untreated (control bioreactor) and the other bioreactor was dosed with MBO (test bioreactor) throughout the remaining four months of the study. The sulfide levels were measured in the control and test bioreactors weekly. MBO was dosed continuously in increasing increments at 25, 50, 100, and 150 ppm for roughly five weeks of the experiment. Next, a 4-hour batch treatment of MBO at 500 ppm was also tested twice followed by a low continuous dosage of MBO at 80 ppm and 100 ppm, respectively. The pH of the system was then decreased from 8.5 to 7.5 and then 7.5 to 6.5 to observe the effect of pH on MBO's efficacy at inhibiting sulfidogenesis. Once the pH of the bioreactor had stabilized at 6.5, MBO was dosed continuously in decreasing increments at 150 ppm, 100 ppm, 80 ppm and 50 ppm. At the end of the study, the dosing of MBO was ceased to monitor when sulfide levels would return in the test bioreactor.
The pH measured in the system and the dosage of MBO throughout the study is recorded as well.

SMILES: CC1CN(CN2COC(C)C2)CO1 (stereo not drawn) [MBO, 3,3′-methylenebis[5-methyloxazolidine]]
- Average reduction in biogenic sulfide ([1]; MBO 50 ppm): 37.03%
- Average Sulfide ([1]; MBO 50 ppm): 4.64 ppm
- Average reduction in biogenic sulfide ([1]; MBO 80 ppm): 93.81%
- Average Sulfide ([1]; MBO 80 ppm): 0.46 ppm
- Average Sulfide ([2]; MBO 80 ppm): 0.09 ppm
- Average reduction in biogenic sulfide ([2]; MBO 80 ppm): 98.4%
- Average Sulfide ([2]; MBO 120 ppm): 0.09 ppm
- Average reduction in biogenic sulfide ([2]; MBO 120 ppm): 98.4%
- Average Sulfide ([2]; MBO 150 ppm): 0.13 ppm
- Average reduction in biogenic sulfide ([2]; MBO 150 ppm): 97.8%
- Test Bioreactor Sulfide ([3]; Day 21 (as printed, between days 30 and 35), dosage of MBO 25 ppm, pH 8.5): 44.6 mg/L
- Test Bioreactor Sulfide ([3]; Day 30, dosage of MBO 25 ppm, pH 8.5): 34.9 mg/L
- Test Bioreactor Sulfide ([3]; Day 35, dosage of MBO 25 ppm, pH 8.5): 45.7 mg/L
- Test Bioreactor Sulfide ([3]; Day 37, dosage of MBO 50 ppm, pH 8.5): 46.2 mg/L
- Test Bioreactor Sulfide ([3]; Day 38, dosage of MBO 50 ppm, pH 8.5): 48.7 mg/L
- Test Bioreactor Sulfide ([3]; Day 42, dosage of MBO 50 ppm, pH 8.5): 44.8 mg/L
- Test Bioreactor Sulfide ([3]; Day 44, dosage of MBO 100 ppm, pH 8.5): 44.2 mg/L
- Test Bioreactor Sulfide ([3]; Day 45, dosage of MBO 100 ppm, pH 8.5): 41.0 mg/L
- Test Bioreactor Sulfide ([3]; Day 46, dosage of MBO 100 ppm, pH 8.5): 10.3 mg/L
- Test Bioreactor Sulfide ([3]; Day 49, dosage of MBO 100 ppm, pH 8.5): 3.1 mg/L
- Test Bioreactor Sulfide ([3]; Day 51, dosage of MBO 100 ppm, pH 8.5): 0.7 mg/L
- Test Bioreactor Sulfide ([3]; Day 52, dosage of MBO 100 ppm, pH 8.5): 0.5 mg/L
- Test Bioreactor Sulfide ([3]; Day 53, dosage of MBO 100 ppm, pH 8.5): 3.1 mg/L
- Test Bioreactor Sulfide ([3]; Day 56, dosage of MBO 100 ppm, pH 8.5): 5.3 mg/L
- Test Bioreactor Sulfide ([3]; Day 58, dosage of MBO 150 ppm, pH 8.5): 4.9 mg/L
- Test Bioreactor Sulfide ([3]; Day 60, dosage of MBO 150 ppm, pH 8.5): 1.0 mg/L
- Test Bioreactor Sulfide ([3]; Day 63, dosage of MBO 150 ppm, pH 8.5): 21.5 mg/L
- Test Bioreactor Sulfide ([3]; Day 65, dosage of MBO 150 ppm, pH 8.5): 19.9 mg/L
- Test Bioreactor Sulfide ([3]; Day 67, dosage of MBO 150 ppm, pH 8.5): 25.7 mg/L
- Test Bioreactor Sulfide ([3]; Day 70, dosage of MBO 150 ppm, pH 8.5): 29.1 mg/L
- Test Bioreactor Sulfide ([3]; Day 72, dosage of MBO 0 ppm (dosing paused after 150 ppm), pH 8.5): 29.4 mg/L
- Test Bioreactor Sulfide ([3]; Day 74, dosage of MBO 0 ppm (dosing paused after 150 ppm), pH 8.5): 21.9 mg/L
- Test Bioreactor Sulfide ([3]; Day 77, dosage of MBO 0 ppm (dosing paused after 150 ppm), pH 8.5): 32.0 mg/L
- Test Bioreactor Sulfide ([3]; Day 78, dosage of MBO 500 ppm (4 hours batch) + 80 ppm, pH 8.5): 37.2 mg/L
- Test Bioreactor Sulfide ([3]; Day 79, dosage of MBO 80 ppm after 500 ppm batch, pH 8.5): 37.8 mg/L
- Test Bioreactor Sulfide ([3]; Day 80, dosage of MBO 80 ppm after 500 ppm batch, pH 8.5): 23.0 mg/L
- Test Bioreactor Sulfide ([3]; Day 81, dosage of MBO 80 ppm after 500 ppm batch, pH 8.5): 27.7 mg/L
- Test Bioreactor Sulfide ([3]; Day 84, dosage of MBO 80 ppm after 500 ppm batch, pH 8.5): 31.8 mg/L
- Test Bioreactor Sulfide ([3]; Day 86, dosage of MBO 80 ppm after 500 ppm batch, pH 3.5 (so in the source)): 32.0 mg/L
- Test Bioreactor Sulfide ([3]; Day 88, dosage of MBO 0 ppm (dosing paused after 80 ppm), pH 8.5): 29.1 mg/L
- Test Bioreactor Sulfide ([3]; Day 91, dosage of MBO 0 ppm (dosing paused after 80 ppm), pH 8.5): 25.6 mg/L
- Test Bioreactor Sulfide ([3]; Day 93, dosage of MBO 500 ppm (4 hours batch) + 100 ppm, pH 8.5): 30.7 mg/L
- Test Bioreactor Sulfide ([3]; Day 94, dosage of MBO 100 ppm after 500 ppm batch, pH 8.5): 24.1 mg/L
- Test Bioreactor Sulfide ([3]; Day 95, dosage of MBO 100 ppm after 500 ppm batch, pH 8.5): 24.2 mg/L
- Test Bioreactor Sulfide ([3]; Day 98, dosage of MBO 100 ppm after 500 ppm batch, pH 8.5): 20.3 mg/L
- Test Bioreactor Sulfide ([3]; Day 100, dosage of MBO 100 ppm, pH 7.5): 20.1 mg/L
- Test Bioreactor Sulfide ([3]; Day 101, dosage of MBO 100 ppm, pH 7.5): 9.9 mg/L
- Test Bioreactor Sulfide ([3]; Day 102, dosage of MBO 100 ppm, pH 7.5): 16.6 mg/L
- Test Bioreactor Sulfide ([3]; Day 105, dosage of MBO 100 ppm, pH 7.5): 22.5 mg/L
- Test Bioreactor Sulfide ([3]; Day 107, dosage of MBO 100 ppm, pH 6.5): 20.2 mg/L
- Test Bioreactor Sulfide ([3]; Day 108, dosage of MBO 100 ppm, pH 6.5): 23.4 mg/L
- Test Bioreactor Sulfide ([3]; Day 109, dosage of MBO 100 ppm, pH 6.5): 20.9 mg/L
- Test Bioreactor Sulfide ([3]; Day 112, dosage of MBO 100 ppm, pH 6.5): 18.2 mg/L
- Test Bioreactor Sulfide ([3]; Day 114, dosage of MBO 150 ppm, pH 6.5): 16.3 mg/L
- Test Bioreactor Sulfide ([3]; Day 115, dosage of MBO 150 ppm, pH 6.5): 7.7 mg/L
- Test Bioreactor Sulfide ([3]; Day 116, dosage of MBO 150 ppm, pH 6.5): 2.9 mg/L
- Test Bioreactor Sulfide ([3]; Day 119, dosage of MBO 150 ppm, pH 6.5): 0.7 mg/L
- Test Bioreactor Sulfide ([3]; Day 121, dosage of MBO 150 ppm, pH 6.5): 0.5 mg/L
- Test Bioreactor Sulfide ([3]; Day 122, dosage of MBO 150 ppm, pH 6.5): 0.5 mg/L
- Test Bioreactor Sulfide ([3]; Day 123, dosage of MBO 150 ppm, pH 6.5): 0.5 mg/L
- Test Bioreactor Sulfide ([3]; Day 126, dosage of MBO 150 ppm, pH 6.5): 0.5 mg/L
- Test Bioreactor Sulfide ([3]; Day 128, dosage of MBO 100 ppm (decreasing increments), pH 6.5): 0.5 mg/L
- Test Bioreactor Sulfide ([3]; Day 129, dosage of MBO 100 ppm (decreasing increments), pH 6.5): 0.5 mg/L
- Test Bioreactor Sulfide ([3]; Day 130, dosage of MBO 100 ppm (decreasing increments), pH 6.5): 0.5 mg/L
- Test Bioreactor Sulfide ([3]; Day 133, dosage of MBO 100 ppm (decreasing increments), pH 6.5): 0.5 mg/L
- Test Bioreactor Sulfide ([3]; Day 135, dosage of MBO 80 ppm (decreasing increments), pH 6.5): 0.5 mg/L
- Test Bioreactor Sulfide ([3]; Day 136, dosage of MBO 80 ppm (decreasing increments), pH 6.5): 0.5 mg/L
- Test Bioreactor Sulfide ([3]; Day 137, dosage of MBO 80 ppm (decreasing increments), pH 6.5): 0.5 mg/L
- Test Bioreactor Sulfide ([3]; Day 140, dosage of MBO 80 ppm (decreasing increments), pH 6.5): 0.5 mg/L
- Test Bioreactor Sulfide ([3]; Day 141, dosage of MBO 50 ppm (decreasing increments), pH 6.5): 0.5 mg/L
- Test Bioreactor Sulfide ([3]; Day 144, dosage of MBO 50 ppm (decreasing increments), pH 6.5): 0.5 mg/L
- Test Bioreactor Sulfide ([3]; Day 147, dosage of MBO 50 ppm (decreasing increments), pH 6.5): 0.5 mg/L
- Test Bioreactor Sulfide ([3]; Day 150, dosage of MBO 0 ppm (dosing ceased at end of study), pH 6.5): 0.5 mg/L
- Test Bioreactor Sulfide ([3]; Day 151, dosage of MBO 0 ppm (dosing ceased at end of study), pH 6.5): 0.5 mg/L
- Test Bioreactor Sulfide ([3]; Day 154, dosage of MBO 0 ppm (dosing ceased at end of study), pH 6.5): 0.5 mg/L
- sulfide levels in the test bioreactor, lowest reached ([3]; dosage of MBO at 100 ppm, initial decrease, sulfide levels started to increase again afterwards): 0.5 mg/L
- sulfide levels in the test bioreactor ([3]; pH 6.5, dosing MBO at 150 ppm, stayed throughout remainder of study through decreasing dosages): 0.5 mg/L
- effect on sulfide levels in the test bioreactor ([3]; two high batch dosages of MBO at 500 ppm followed by low continuous dosage at 80 and 100 ppm): did not further decrease sulfide levels
